SMILES strings stand for the structures.

The test system of data set [1] is MIApaca/FG2 cells. Put plainly: EC50 assay of small molecule activated γδ T cells to kill MIApaca/FG2 tumor cells (10-fold dilution protocol). It counts as cell-based. The protocol:
γδT cells and MIApaca/FG2 tumor cell lines were expanded and cultured in vitro. The MIApaca/FG2 cells were digested, and the cells were counted and resuspended in DMEM complete medium, the density of the cell suspension was adjusted and added into a 96-well plate at 5×10^3 cells/50 μL/well for overnight incubation. On the next day, the test compound and the control compound were diluted at a 10-fold ratio with γδT complete medium. 50 μL of diluted compound was transferred to the corresponding wells which had been plated with tumor cells, and the actual detection concentration was in the range of 10^−12-10^−5 M. γδT cells were resuspended in γδT complete medium, and the density of the cell suspension was adjusted according to the effector-target ratio of E:T=2:1, and then the cells were added to the corresponding wells at 1×10^4 cells/50 μL/well. After co-culture at 37° C., 5% CO2 for 20 hours, the cells were centrifuged. The supernatant was removed, and 50 μL of cell lysate containing luciferin substrate was added to each well. After standing for 18 minutes in the dark, the signal of chemiluminescence was detected. The EC50 value was calculated by four-parameter fitting, with the corresponding signal value of the well with only tumor cells as the minimum killing value, and the corresponding signal value of the well without tumor cells as the maximum killing value. The killing data of MIApaca/FG2 cells is as follows: […]

The subject of data set [2] is MIApaca/FG2 cells. Put plainly: EC50 assay of small molecule activated γδ T cells to kill MIApaca/FG2 tumor cells (3-fold dilution protocol). In kind it is cell-based. The settings on record: Homo sapiens, MIA PaCa-2, γδT cells + MIApaca/FG2, E:T=2:1, co-culture 20 hours, 0.05-100 nM, read-out: MIApaca killing (EC50). The method, then:
γδT cells and MIApaca/FG2 tumor cell lines were expanded and cultured in vitro. MIApaca/FG2 cells were digested, and the cells were counted and resuspended in DMEM complete medium, the density of the cell suspension was adjusted and added into a 96-well plate at 5×10^3 cells/100 […]/well for overnight incubation. On the next day, the test compound and the control compound were diluted at a 3-fold ratio with DMSO, and 4 μL of the diluted compound was added to 96 μL of culture medium for 25-fold dilution. 5 μL of 25-fold diluted compound was transferred to the corresponding well which had been plated with tumor cells, and the actual detection concentration was in the range of 0.05-100 nM. γδT cells were resuspended in γδT complete medium, and the density of the cell suspension was adjusted according to the effector-target ratio of E:T=2:1, and then the cell was added to the corresponding well at 1×10^4 cells/100 μL/well. After co-culture at 37° C., 5% CO2 for 20 hours, the cells were centrifuged. The supernatant was removed, and 50 μL of cell lysate containing fluorescein substrate was added to each well. After standing for 18 minutes in the dark, the signal of chemiluminescence was detected. The EC50 value was calculated by four-parameter fitting, with the corresponding signal value of the well with only tumor cells as the minimum killing value, and the corresponding value of the well without tumor cells as the maximum killing value. The killing data of MIApaca/FG2 cells is as follows: […]

A short description of data set [3]: Stability experiment of compounds in human liver microsomes. In kind it is in vitro ADME. The note with it: NADPH, 37° C., read-out: T1/2 in human liver microsomes. The method, then: Compounds were prepared as a 10 mM stock solution with DMSO and then diluted with 80% acetonitrile-water to a 100 μM working solution for later use. Human liver microsomes were obtained from BIOIVT.
(1) The liver microsomes taken out from the refrigerator were placed in a 37° C. water bath thermostatic oscillator, pre-incubated for 5 min, and thawed for later use.
(2) A certain amount of NADPH was weighed and added to an appropriate amount of magnesium chloride solution to dissolve into a 2 mM solution for later use.
(3) A mixed solution of the warm incubation system (containing no β-NADPH) was prepared according to the proportions in the “composition of the experimental warm incubation system” above and dispensed at 165 μL/tubes (45 μL/tube for the negative control group and 120 μL/tube for the positive control group).
(4) For the sample at 0 min: 200 μL of internal standard working precipitant was added and then 30 μL of NADPH solution was added.
(5) For other samples: 135 μL NADPH solution was added to initiate the reaction (45 μL magnesium chloride solution was added for the negative control group), and incubated in a 37° C. water bath for 5, 15, 30, and 60 min (incubated in a 37° C. water bath for 60 min for the negative control group), then 60 μL was sampled and added to 200 µL of precipitant containing internal standard.
(6) For the positive control group: 90 L NADPH solution was added to initiate the reaction, and incubated in a 37° C. water bath for 5, 15 min, then 60 μL was sampled and added to 200 μL of precipitant containing internal standard.
(7) For neat sample: 297 μL of water was pipetted into a tube, 1000 μL of internal standard working solution was added, and 3 μL of test compound working solution was added.
(8) All samples were vortexed and centrifuged.
(9) 150 μL of the supernatant was sampled and added to 150 μL of water, mixed uniformly by vortex, and analyzed by LC-MS/MS. The half-life stability data of human liver microsomes is as follows: […]

A short description of data set [4]: Binding rate test of compounds and human plasma protein (equilibrium dialysis). It counts as in vitro ADME. The settings on record: human plasma, equilibrium dialysis 6 hours, 37° C. The protocol: (1) The dry dialysis membrane was soaked with ultrapure water for 20 min or more than 20 min, then soaked with 20% ethanol for 30 min to 1 h, and the membrane was rinsed with ultrapure water 2-3 times. Finally, the membrane was soaked with ultrapure water for 20 minutes for later use.
(2) The frozen plasma was thawed in a water bath at 37° C.
(3) The test compound was diluted into plasma preheated to 37° C. at a final concentration of 1 μM, and the final concentration of the control compound warfarin in plasma was 2 μM.
(4) The pre-treated dialysis membrane was assembled into the dialysis plate according to the specification of the product, and 120 μL of the receiving solution (100 mM phosphate buffer solution added 0.002% Tween 80) was added to one side of the permeable membrane in each dialysis well.
(5) 20 μL of each of the final solutions of the test compound and the control compound were added into a 96-well sample plate in duplicate, and the TO sample was obtained, which was stored in a refrigerator at −20° C. Another 20 μL of the above final solution was added to the other side of the membrane in the dialysis device in duplicate, and incubated at 37° C. by shaking at constant temperature for 6 hours.
(6) After 6 hours of incubation, 20 L of each of the dialyzed receiving solution and the administered plasma were weighed to obtain sample B and sample A in duplicate. The corresponding volume of corresponding blank plasma or receiving solution was added to sample B and sample A, respectively, so that the volume ratio of plasma to buffer in each sample well was 1:1. 300 μL of acetonitrile solution containing internal standard was added to all sample wells, and centrifuged after mixed uniformly.
(7) 200 μL of ultrapure water (150 μL for the control group) was added into the corresponding sample wells of the 96-well sample plate, and 300 μL of the supernatant (150 μL for the control group) was added into the sample well; the samples were analyzed after mixed uniformly. The free percentage and recovery rate of the compound in plasma were calculated using the following formula: Plasma protein binding rate (%)=1−free percentage, wherein free percentage (%)=CB/CA
wherein CB is the concentration of the compound in the receiving solution after equilibrium dialysis, CA is the concentration of the compound in the drug-dosed plasma after equilibrium dialysis, and CT0 is the initial concentration of the compound in plasma.

The mark [5] stands for this setting: read-out: MIApaca killing (EC50), γδT cells + MIApaca/FG2, E:T=2:1, co-culture 20 hours, 10^-12-10^-5 M.
Setting [6] is: Homo sapiens, MIA PaCa-2, γδT cells + MIApaca/FG2, E:T=2:1, co-culture 20 hours, 10^-12-10^-5 M, read-out: MIApaca killing (EC50).

In the case of `CC(C)OC(=O)[C@H](C)NP(=O)(CCC=C(CO)CO)Oc1ccccc1` (stereo partly drawn) [Compound 1, Isopropyl ((5-hydroxy-4-(hydroxymethyl)pent-3-en-1-yl)(phenoxy)phosphoryl)-L-alaninate], the EC50 in data set [1] (setting [5]) came to 57.1 nM.

As for `C[C@H](NP(=O)(OC/C=C(/CO)C(F)(F)F)Oc1ccccc1)C(=O)O[C@H]1CCOC1` (stereo partly drawn) [Compound 12, (S)-tetrahydrofuran-3-yl ((phenoxy)(((Z)-4,4,4-trifluoro-3-(hydroxymethyl)but-2-en-1-yl)oxy)phosphoryl)-L-alaninate], the EC50 in data set [1] (setting [6]) came to 5.1 nM. As for `C/C(=C\COP(=O)(O)OP(=O)(O)O)CO` [HMBPP control, reference compound], in data set [1] (γδT cells + MIApaca/FG2, E:T=2:1, co-culture 20 hours, 10^-12-10^-5 M, read-out: MIApaca killing (EC50)), the EC50 stood at 2.1 nM.

Take `CC(C)OC(=O)[C@H](C)NP(=O)(OC/C=C(/CO)C(F)(F)F)Oc1cccc2ccccc12` (stereo partly drawn) [Compound 14, isopropyl ((naphthyloxy)(((Z)-4,4,4-trifluoro-3-(hydroxymethyl)but-2-en-1-yl)oxy)phosphoryl)-L-alaninate]: the EC50 in data set [1] (setting [6]) worked out at 67 nM.

As to `CC/C(=C\CCP(=O)(N[C@@H](C)C(=O)OC(C)C)Oc1ccccc1)CO` (stereo partly drawn) [Compound 4, Isopropyl (((E)-5-hydroxy-4-ethylpent-3-en-1-yl)(phenoxy)phosphoryl)-L-alaninate], the EC50 in data set [1] (setting [5]) is 174 nM.

Regarding `C/C(=C\CCP(=O)(N[C@@H](C)C(=O)OC1CCCC1)Oc1ccccc1)CO` (stereo partly drawn) [Compound 6, Cyclopentyl (((E)-5-hydroxy-4-methylpent-3-en-1-yl)(phenoxy)phosphoryl)-L-alaninate], the EC50 in data set [1] (setting [5]) is 0.098 nM. Consider `CC(C)OC(=O)[C@H](C)NP(=O)(OC/C=C(/CO)C(F)(F)F)Oc1ccccc1` (stereo partly drawn) [Compound 3, Isopropyl ((phenoxy)(((Z)-4,4,4-trifluoro-3-(hydroxymethyl)but-2-en-1-yl)oxy)phosphoryl)-L-alaninate], for which the EC50 in data set [1] (setting [6]) turned out to be 8 nM. Still for that read-out and setting: next, `C[C@H](NP(=O)(OC/C=C(/CO)C(F)(F)F)Oc1ccccc1)C(=O)OCC1CC1` (stereo partly drawn) [Compound 9, Cyclopropylmethyl ((phenoxy)(((Z)-4,4,4-trifluoro-3-(hydroxymethyl)but-2-en-1-yl)oxy)phosphoryl)-L-alaninate]: 9.9 nM. Same read-out and setting: the result for `CCC(CC)COC(=O)[C@H](C)NP(=O)(OC/C=C(/CO)C(F)(F)F)Oc1ccccc1` (stereo partly drawn) [Compound 10, 2-Ethylbutyl ((phenoxy)(((Z)-4,4,4-trifluoro-3-(hydroxymethyl)but-2-en-1-yl)oxy)phosphoryl)-L-alaninate] reads 12.8 nM; that for `C[C@H](NP(=O)(OC/C=C(/CO)C(F)(F)F)Oc1ccccc1)C(=O)O[C@@H]1CCOC1` (stereo partly shown) [Compound 13], 6.6 nM. `CC(C)OC(=O)[C@H](C)NP(=O)(CC/C=C/CO)Oc1ccccc1` (stereo partly drawn) [Compound 5, Isopropyl (((E)-5-hydroxypent-3-en-1-yl)(phenoxy)phosphoryl)-L-alaninate]: the EC50 in data set [1] (setting [5]) was determined as 11.6 nM. Take `CCC(CC)COC(=O)[C@H](C)NP(=O)(CC/C=C(\C)CO)Oc1ccccc1` (stereo partly drawn) [Compound 2, 2-Ethylbutyl (((E)-5-hydroxy-4-methylpent-3-en-1-yl)(phenoxy)phosphoryl)-L-alaninate]: in data set [1] (setting [5]), the EC50 turned out to be 0.19 nM. Turning to `C/C(=C\CCP(=O)(N[C@@H](C)C(=O)O[C@H]1CO[C@H]2OCC[C@H]21)Oc1ccccc1)CO` (stereo partly drawn) [Compound 32, (3R,3aS,6aR)-hexahydrofuran[2,3-b]furan-3-yl (((E)-5-hydroxy-4-methylpent-3-en-1-yl)(phenoxy)phosphoryl)-L-alaninate], the EC50 in data set [2] turned out to be 0.21 nM. In addition, the half-life in data set [3] turned out to be 11.4 min. Further, the unbound share (fraction unbound) (in general, the share of the substance not bound to proteins or other matrix) at 6 h, 1 μM in data set [4] is 0.214.

Consider `C/C(=C\CCP(=O)(N[C@@H](C)C(=O)OC1CCN(CC(F)(F)F)CC1)Oc1ccccc1)CO` (stereo partly shown) [Compound 31], for which, in data set [2], the EC50 is 0.13 nM. The half-life in data set [3] was 3.91 min. Moreover, the fraction unbound at 6 h, 1 μM in data set [4] is 0.129. Take `C[C@H](NP(=O)(OC/C=C(/CO)C(F)(F)F)Oc1ccccc1)C(=O)OC1CCCC1` (stereo partly drawn) [Compound 11, Cyclopentyl ((phenoxy)(((Z)-4,4,4-trifluoro-3-(hydroxymethyl)but-2-en-1-yl)oxy)phosphoryl)-L-alaninate]: the EC50 in data set [1] (setting [6]) came to 35.4 nM.

These data come from US20260207637A1, “MODULATOR FOR PROMOTING BINDING OF BUTYROPHILIN 3A1/2A1” (priority 2023, published 2026).
